Assay results reported in article PMC11628833 (Acta Pharmaceutica Sinica. B, 2024).

Legend:
hTLR8 = molecular target: T1, hTLR8 (Homo sapiens, UniProt Q9NR97); experiment: SEAP reporter assay in HEK-Blue hTLR8 cells; type: cell-based
T1 sequence (Q9NR97 27-1041): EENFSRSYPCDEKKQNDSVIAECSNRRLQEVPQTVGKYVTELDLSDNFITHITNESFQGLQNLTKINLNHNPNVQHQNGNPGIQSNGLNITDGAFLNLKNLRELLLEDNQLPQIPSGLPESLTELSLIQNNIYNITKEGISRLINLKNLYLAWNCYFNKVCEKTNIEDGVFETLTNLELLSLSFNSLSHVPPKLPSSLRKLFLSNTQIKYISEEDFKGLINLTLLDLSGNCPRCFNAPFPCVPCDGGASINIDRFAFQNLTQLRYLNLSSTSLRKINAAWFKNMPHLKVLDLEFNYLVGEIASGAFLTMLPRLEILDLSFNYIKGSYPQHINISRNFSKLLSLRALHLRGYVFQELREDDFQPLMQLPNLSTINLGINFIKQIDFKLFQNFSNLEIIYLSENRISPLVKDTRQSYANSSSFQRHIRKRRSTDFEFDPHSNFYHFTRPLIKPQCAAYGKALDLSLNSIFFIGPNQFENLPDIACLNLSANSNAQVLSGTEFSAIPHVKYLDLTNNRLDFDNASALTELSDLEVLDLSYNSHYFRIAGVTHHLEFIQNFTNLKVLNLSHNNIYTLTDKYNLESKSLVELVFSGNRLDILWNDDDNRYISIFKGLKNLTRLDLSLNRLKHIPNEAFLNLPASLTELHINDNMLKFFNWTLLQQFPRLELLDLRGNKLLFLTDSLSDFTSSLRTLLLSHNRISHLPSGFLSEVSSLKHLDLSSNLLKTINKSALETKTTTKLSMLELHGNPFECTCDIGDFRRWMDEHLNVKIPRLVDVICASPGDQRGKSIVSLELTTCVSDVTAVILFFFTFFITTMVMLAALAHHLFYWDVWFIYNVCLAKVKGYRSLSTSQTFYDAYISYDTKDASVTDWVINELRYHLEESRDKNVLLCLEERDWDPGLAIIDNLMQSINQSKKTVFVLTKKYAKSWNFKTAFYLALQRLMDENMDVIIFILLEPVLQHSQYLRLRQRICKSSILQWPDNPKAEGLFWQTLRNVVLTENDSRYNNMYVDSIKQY

TLR9 = molecular target: T2, TLR9 (Homo sapiens, UniProt Q9NR96); experiment: Specificity test in HEK-Blue TLR-overexpressing cells, TLR9; type: cell-based; details: 5 μM S-1, HEK-Blue TLR cells, TLR-specific agonist
T2 sequence (Q9NR96 26-1032): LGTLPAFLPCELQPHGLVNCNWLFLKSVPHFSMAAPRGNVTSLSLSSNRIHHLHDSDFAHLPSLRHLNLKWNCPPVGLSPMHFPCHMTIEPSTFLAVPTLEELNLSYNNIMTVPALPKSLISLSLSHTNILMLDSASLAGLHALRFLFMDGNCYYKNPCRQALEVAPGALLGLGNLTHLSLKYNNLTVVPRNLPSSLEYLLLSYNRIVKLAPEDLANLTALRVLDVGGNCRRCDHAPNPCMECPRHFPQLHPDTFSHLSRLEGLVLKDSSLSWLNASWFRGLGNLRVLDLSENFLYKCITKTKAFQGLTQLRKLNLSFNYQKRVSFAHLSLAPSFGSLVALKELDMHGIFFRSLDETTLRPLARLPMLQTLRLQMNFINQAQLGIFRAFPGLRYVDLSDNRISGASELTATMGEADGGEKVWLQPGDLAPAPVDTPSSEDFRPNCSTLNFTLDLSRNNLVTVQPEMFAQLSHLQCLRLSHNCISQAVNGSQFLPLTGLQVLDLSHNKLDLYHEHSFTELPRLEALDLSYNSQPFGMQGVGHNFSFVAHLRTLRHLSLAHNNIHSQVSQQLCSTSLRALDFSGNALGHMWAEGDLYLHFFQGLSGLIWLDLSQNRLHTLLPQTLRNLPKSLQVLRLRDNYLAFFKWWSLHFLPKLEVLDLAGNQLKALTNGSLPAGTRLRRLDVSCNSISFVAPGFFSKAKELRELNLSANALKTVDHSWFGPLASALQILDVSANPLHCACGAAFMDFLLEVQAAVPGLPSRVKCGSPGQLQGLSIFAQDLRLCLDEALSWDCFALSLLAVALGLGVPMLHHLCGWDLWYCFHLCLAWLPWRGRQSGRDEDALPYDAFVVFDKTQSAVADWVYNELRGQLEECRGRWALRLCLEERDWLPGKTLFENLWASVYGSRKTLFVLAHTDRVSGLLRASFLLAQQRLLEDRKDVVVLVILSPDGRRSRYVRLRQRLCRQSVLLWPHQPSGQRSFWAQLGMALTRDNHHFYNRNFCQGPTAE

TLR3 = molecular target: T3, TLR3 (Homo sapiens, UniProt O15455); experiment: Specificity test in HEK-Blue TLR-overexpressing cells, TLR3; type: cell-based; details: 5 μM S-1, HEK-Blue TLR cells, TLR-specific agonist
T3 sequence (O15455 24-904): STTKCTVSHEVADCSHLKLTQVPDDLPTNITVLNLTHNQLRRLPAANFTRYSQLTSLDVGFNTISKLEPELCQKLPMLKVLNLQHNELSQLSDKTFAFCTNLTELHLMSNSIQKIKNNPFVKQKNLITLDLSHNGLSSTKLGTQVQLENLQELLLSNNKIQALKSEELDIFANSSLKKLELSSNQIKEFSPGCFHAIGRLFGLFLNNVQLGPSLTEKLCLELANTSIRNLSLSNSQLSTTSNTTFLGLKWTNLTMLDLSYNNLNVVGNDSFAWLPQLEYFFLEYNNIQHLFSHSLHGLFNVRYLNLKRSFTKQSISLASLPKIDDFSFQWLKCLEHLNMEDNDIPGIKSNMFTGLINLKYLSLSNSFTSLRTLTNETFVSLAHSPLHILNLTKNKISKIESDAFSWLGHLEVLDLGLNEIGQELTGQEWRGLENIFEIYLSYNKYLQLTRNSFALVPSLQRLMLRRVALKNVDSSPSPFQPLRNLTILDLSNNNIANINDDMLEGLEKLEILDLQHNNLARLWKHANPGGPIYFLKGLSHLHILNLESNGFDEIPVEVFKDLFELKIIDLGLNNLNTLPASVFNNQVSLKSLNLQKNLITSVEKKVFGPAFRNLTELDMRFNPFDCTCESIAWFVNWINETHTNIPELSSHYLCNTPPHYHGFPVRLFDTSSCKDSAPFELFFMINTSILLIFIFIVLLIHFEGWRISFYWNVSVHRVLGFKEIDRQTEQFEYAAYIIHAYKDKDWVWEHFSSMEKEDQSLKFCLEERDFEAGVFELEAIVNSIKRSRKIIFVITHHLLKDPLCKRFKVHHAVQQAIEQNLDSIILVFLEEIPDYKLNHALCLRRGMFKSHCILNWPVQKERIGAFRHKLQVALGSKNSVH

TLR1/2/6 = experiment: Specificity test in HEK-Blue TLR-overexpressing cells, TLR1/2/6; type: cell-based, human; details: 5 μM S-1, HEK-Blue TLR cells, TLR-specific agonists
TLR5 = TLR5 (Homo sapiens, UniProt O60602); experiment: Specificity test in HEK-Blue TLR-overexpressing cells, TLR5; type: cell-based; details: 5 μM S-1, HEK-Blue TLR cells, TLR-specific agonist
Chain of TLR5 (O60602 21-858): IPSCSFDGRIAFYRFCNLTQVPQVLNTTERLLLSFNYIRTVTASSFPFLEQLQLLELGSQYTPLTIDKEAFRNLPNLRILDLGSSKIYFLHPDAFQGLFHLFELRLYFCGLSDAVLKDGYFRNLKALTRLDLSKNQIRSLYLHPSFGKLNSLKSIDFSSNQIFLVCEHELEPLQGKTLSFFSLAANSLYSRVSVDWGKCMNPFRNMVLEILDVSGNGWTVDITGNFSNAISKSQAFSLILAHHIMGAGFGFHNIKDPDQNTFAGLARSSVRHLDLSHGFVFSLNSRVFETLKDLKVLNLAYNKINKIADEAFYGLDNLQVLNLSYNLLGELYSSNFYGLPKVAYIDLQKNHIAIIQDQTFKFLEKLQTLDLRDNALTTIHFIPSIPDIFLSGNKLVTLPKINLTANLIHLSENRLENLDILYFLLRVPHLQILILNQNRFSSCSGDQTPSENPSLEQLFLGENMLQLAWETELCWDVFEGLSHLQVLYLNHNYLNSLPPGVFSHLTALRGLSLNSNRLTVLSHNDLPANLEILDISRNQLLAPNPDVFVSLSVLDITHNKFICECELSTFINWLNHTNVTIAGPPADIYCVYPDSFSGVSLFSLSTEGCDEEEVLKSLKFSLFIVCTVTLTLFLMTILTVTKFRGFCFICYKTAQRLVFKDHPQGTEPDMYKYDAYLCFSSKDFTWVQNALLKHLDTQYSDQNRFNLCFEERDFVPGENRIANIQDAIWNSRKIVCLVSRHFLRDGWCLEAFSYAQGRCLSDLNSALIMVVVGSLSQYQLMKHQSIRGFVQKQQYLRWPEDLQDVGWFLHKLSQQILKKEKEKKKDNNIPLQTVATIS

In the case of O=C(c1ccc(Cl)cc1)N1CCN(c2ccc([N+](=O)[O-])c3ncccc23)CC1 [Compound S1], the IC50 (hTLR8) is reported as 130 ± 30 nM, the “inhibition of TLR9” value (TLR9) is reported as “no obvious inhibition” and the “inhibition of TLR3” value (TLR3) is reported as “no obvious inhibition”. The “inhibition of TLR1/2/6” value (TLR1/2/6) was “no obvious inhibition” and the “inhibition of TLR5” value (TLR5) was “no obvious inhibition”.
